According to patent US20260144776A1, “COMBINATION THERAPY FOR A DOPAMINE AGONIST” (priority 2017, published 2026):

Columns and labels:
[1] = test system: humans; settings: in vivo
Protocol: The study was single center, single-blind study.
Once a subject had reached his/her first intolerable dose (FID-1), upward dose escalation was discontinued.
All other provisions of the protocol remained unchanged. Assessments were the same as those planned for the dose escalation day.
On each study day, subjects were followed up for up to 8 hours following drug administration for AEs, vital signs, ECGs. In addition, a laboratory panel was taken at screening and at the end of the study.

[2] = test system: patients with a DSM-III-R diagnosis of major depression; settings: pramipexole 5.0 mg group, cited from earlier work
[3] = test system: animal behavior simulating symptoms of depression; settings: high doses of pramipexole; cited from earlier work
[4] = test system: depressive symptoms in patients with PD; settings: 12 weeks, 296 PD patients, pramipexole 0.125 to 1.0 mg/kg; placebo 4.0 (SE 0.5), p=0.01; cited from earlier work

## CCCN[C@H]1CCc2nc(N)sc2C1 [Pramipexole, (S)-6-propylamino-4,5,6,7-tetrahydro-1,3-benzothiazole-2-amine]
[1]
  dose limiting toxicity: gastro-intestinal adverse events
[2]; mainly because of adverse events
  patients who discontinued treatment prematurely: 57.6%
[2]; best improvement, no p value against placebo because of drop-out rate
  improvement at week 8 (change from baseline): −15.00
[2]
  patients who reported nausea: 76%
  patients who reported vomiting: 39%
[3]
  activity in tests of animal behavior simulating symptoms of depression: active
[4]
  BDI scores decreased by an adjusted: 5.9 (SE 0.5)
